In ChEMBL document CHEMBL1201862, “PubChem BioAssay data set” (2004) one finds AC50, IC50 and EC50 data, which are given here for three compounds.

Active and inactive are the calls of the source.

The target in test [1] is T1, Histone-lysine N-methyltransferase NSD2 (Homo sapiens, UniProt O96028).
T1 sequence (O96028 whole entry): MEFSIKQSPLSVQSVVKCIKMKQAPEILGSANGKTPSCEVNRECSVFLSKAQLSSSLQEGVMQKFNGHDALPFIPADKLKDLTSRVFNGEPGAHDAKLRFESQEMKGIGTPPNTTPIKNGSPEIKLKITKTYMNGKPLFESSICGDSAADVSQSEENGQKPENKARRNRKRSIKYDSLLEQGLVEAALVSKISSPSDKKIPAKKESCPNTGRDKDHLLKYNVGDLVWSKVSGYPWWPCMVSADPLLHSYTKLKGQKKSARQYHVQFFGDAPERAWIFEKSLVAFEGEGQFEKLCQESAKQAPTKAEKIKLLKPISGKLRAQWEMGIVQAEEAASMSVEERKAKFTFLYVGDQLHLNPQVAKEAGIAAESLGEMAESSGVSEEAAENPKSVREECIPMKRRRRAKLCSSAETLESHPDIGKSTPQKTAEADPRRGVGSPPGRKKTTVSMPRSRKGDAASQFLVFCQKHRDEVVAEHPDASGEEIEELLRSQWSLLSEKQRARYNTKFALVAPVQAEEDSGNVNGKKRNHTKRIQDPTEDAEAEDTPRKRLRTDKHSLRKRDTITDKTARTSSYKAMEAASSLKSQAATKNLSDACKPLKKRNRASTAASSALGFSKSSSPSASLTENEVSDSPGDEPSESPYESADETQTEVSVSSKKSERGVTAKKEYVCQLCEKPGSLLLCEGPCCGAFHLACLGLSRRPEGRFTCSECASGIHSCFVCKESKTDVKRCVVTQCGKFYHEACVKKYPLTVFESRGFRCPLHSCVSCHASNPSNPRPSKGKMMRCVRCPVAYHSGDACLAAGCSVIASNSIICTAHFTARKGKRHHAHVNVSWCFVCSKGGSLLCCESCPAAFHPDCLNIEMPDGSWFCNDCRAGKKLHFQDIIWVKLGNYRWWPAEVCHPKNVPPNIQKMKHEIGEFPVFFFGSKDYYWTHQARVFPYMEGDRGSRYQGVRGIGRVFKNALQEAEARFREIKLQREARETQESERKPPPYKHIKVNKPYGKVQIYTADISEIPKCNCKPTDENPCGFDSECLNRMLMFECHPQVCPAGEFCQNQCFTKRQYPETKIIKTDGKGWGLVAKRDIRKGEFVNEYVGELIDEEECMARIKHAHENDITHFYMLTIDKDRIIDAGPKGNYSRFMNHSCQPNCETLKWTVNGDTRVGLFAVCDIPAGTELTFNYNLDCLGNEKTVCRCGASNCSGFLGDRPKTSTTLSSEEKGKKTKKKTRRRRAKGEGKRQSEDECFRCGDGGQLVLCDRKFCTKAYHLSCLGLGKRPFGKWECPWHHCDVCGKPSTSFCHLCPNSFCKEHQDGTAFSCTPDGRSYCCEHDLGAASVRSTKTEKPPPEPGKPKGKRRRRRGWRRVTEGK
It counts as biochemical.

Another test concerns the target Prothrombin (Bos taurus, UniProt P00735). Briefly: thrombin protease inhibitors – biochemical, fluorescence polarization, uHTS hits, dose response (AID 602369). Type of test: functional.
The target in test [2] is T2, Voltage-gated N-type calcium channel alpha-1B subunit/Amyloid beta A4 precursor protein-binding family A member 1 (Homo sapiens, UniProt Q00975+Q02410). Type of test: protein assay.
T2 sequence (Q00975 whole entry): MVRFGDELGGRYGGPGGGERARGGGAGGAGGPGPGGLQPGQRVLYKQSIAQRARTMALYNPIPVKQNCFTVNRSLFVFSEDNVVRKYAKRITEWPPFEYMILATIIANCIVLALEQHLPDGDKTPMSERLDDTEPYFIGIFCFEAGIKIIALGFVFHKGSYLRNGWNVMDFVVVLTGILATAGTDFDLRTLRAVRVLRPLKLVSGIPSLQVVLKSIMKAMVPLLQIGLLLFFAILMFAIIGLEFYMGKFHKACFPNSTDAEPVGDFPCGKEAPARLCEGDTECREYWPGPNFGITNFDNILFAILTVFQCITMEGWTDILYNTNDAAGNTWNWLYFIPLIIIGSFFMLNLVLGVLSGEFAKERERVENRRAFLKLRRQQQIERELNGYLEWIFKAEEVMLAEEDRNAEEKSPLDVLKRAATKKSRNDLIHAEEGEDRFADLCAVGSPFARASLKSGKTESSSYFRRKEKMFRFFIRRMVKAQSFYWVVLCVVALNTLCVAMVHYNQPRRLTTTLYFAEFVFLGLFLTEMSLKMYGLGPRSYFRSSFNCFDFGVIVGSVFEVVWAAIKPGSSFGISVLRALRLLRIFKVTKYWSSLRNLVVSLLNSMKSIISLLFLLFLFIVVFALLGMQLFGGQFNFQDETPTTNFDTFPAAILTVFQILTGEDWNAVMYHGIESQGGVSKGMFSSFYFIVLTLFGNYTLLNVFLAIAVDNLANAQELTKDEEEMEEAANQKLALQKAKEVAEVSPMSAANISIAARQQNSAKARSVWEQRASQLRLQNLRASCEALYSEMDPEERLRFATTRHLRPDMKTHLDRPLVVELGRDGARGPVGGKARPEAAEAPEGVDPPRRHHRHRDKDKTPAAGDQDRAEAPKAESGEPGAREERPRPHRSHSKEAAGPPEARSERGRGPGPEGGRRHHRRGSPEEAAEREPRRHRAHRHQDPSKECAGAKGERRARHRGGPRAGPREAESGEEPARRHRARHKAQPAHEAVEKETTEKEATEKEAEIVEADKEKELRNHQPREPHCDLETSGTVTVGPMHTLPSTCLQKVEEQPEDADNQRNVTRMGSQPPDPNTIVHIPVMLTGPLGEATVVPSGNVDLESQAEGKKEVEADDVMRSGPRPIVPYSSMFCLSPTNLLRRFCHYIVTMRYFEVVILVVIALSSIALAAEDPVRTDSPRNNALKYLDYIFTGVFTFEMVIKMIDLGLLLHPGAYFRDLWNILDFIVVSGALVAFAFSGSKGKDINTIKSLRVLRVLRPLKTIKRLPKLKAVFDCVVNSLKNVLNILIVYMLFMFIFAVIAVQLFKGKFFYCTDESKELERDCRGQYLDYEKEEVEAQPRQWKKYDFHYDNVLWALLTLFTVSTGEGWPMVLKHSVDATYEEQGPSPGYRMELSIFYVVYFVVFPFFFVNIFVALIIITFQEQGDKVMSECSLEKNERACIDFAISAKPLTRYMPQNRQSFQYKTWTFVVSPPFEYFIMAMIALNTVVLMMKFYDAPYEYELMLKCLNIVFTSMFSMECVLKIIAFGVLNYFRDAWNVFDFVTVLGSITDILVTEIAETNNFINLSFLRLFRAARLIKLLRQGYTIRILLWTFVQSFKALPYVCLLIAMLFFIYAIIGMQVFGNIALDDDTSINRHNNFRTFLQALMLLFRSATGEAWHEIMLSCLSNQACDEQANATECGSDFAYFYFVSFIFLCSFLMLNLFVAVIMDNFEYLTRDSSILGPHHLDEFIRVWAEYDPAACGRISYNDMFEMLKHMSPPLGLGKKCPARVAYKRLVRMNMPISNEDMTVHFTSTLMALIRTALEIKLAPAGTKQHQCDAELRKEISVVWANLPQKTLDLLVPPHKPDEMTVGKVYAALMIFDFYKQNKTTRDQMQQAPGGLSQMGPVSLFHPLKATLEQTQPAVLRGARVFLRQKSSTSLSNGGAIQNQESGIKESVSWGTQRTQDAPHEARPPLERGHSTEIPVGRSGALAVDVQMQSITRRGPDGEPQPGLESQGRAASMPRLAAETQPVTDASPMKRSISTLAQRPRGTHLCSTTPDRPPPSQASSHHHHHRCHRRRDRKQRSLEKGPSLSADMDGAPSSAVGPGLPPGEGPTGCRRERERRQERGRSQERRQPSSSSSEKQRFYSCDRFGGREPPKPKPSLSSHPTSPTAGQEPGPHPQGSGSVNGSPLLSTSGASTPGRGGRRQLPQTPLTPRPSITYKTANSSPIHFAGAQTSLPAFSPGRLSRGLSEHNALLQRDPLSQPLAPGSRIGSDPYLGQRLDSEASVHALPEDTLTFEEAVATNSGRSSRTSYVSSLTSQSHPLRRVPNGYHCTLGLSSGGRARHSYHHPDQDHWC
T2 sequence (Q02410 whole entry): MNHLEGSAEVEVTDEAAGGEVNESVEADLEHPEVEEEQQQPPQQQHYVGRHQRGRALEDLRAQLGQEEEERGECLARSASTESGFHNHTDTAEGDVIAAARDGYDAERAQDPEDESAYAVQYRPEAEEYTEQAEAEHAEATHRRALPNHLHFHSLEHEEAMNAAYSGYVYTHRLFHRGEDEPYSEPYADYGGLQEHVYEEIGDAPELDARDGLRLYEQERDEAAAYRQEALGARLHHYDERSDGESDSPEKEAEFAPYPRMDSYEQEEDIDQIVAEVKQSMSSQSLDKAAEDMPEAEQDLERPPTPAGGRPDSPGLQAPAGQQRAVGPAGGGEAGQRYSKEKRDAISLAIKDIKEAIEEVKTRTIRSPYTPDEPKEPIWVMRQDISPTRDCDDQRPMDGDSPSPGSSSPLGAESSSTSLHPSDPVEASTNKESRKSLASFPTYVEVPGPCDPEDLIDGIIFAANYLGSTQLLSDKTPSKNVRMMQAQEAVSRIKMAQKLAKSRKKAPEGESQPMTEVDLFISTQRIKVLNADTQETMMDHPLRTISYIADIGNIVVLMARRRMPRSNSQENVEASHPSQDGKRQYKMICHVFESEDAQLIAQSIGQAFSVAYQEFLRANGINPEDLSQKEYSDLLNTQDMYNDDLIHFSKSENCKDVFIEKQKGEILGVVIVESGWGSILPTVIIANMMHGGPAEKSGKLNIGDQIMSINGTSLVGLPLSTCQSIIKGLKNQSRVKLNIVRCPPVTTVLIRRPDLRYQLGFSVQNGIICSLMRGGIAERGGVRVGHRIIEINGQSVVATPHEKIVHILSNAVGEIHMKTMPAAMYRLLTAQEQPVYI
In test [3] the target is 26S proteasome non-ATPase regulatory subunit 14 (Homo sapiens, UniProt O00487). In words: inhibition of proteasome subunit RPN11 – biochemical, fluorescence polarization, uHTS hits, confirmation (AID 602368). Type of test: functional.
26S proteasome non-ATPase regulatory subunit 14, sequence (O00487 whole entry): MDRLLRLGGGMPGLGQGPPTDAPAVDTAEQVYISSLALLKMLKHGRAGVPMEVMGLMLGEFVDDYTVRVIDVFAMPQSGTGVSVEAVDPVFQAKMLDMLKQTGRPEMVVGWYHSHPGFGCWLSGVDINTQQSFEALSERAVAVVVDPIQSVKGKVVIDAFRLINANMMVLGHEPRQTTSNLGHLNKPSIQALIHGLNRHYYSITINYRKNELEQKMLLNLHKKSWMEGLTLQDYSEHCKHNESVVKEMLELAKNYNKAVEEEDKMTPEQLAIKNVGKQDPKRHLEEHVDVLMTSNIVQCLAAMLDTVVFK
A further test deals with Phospholipase A2 (Homo sapiens, UniProt P04054). It counts as functional.
A further test concerns the target T3, Aminopeptidase N (Plasmodium falciparum FcB1/Columbia, UniProt O96935).
T3 sequence (O96935 whole entry): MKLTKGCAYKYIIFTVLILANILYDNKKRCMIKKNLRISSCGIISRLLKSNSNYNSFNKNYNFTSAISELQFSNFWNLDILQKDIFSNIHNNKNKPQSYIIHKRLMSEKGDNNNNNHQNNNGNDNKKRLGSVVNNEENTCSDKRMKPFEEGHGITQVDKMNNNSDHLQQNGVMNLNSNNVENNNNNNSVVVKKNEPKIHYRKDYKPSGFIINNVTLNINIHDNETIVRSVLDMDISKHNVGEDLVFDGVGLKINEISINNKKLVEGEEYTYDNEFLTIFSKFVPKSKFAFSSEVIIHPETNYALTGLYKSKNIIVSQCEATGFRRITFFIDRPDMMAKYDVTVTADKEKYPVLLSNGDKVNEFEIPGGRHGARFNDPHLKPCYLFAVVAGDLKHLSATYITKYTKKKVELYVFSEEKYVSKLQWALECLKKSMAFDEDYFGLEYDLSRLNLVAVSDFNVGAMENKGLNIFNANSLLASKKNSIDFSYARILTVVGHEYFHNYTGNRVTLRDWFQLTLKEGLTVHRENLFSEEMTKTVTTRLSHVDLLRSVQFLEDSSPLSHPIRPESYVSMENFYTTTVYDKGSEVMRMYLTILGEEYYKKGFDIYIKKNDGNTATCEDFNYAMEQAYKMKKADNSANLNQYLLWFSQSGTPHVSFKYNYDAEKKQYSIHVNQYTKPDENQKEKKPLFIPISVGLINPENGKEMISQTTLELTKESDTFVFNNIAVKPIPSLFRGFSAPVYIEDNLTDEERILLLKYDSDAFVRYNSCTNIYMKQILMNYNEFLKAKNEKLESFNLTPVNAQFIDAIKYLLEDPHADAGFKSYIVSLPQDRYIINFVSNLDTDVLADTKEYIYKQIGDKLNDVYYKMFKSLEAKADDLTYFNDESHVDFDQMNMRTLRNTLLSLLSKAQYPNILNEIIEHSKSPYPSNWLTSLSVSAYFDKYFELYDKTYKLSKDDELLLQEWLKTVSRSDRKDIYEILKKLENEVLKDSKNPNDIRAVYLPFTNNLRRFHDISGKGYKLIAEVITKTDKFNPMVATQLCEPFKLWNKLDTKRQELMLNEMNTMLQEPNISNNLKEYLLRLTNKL
Briefly: malaria alanyl aminopeptidase activity blockers – biochemical, fluorogenic H-Leu-NHMec substrate, 1536-well (AID 1445). Also noted: species or system Plasmodium falciparum 3D7, 3D7.

Test [4] deals with 72 kDa type IV collagenase (Homo sapiens, UniProt P08253). In words: Dose Response validation of uHTS RPN11 inhibitor hits using a MMP-2 Fluorescence assay. It counts as functional.
72 kDa type IV collagenase, sequence (P08253 whole entry): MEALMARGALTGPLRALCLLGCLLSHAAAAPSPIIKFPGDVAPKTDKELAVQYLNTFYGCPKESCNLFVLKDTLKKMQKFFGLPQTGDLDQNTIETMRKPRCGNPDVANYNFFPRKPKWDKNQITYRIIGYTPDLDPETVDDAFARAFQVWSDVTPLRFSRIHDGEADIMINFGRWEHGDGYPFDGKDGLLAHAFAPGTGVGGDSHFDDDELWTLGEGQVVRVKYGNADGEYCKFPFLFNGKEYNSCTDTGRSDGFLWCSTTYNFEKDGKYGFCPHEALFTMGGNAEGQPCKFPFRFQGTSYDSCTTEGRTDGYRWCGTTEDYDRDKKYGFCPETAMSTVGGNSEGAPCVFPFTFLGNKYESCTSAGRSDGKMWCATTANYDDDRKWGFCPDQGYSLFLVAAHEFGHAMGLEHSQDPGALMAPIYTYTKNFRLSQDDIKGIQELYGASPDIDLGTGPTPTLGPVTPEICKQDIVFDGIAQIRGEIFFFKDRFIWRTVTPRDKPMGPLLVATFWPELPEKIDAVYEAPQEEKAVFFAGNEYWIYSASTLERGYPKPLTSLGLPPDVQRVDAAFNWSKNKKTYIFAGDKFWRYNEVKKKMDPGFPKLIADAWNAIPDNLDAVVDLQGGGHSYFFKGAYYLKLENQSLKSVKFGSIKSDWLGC
For test [5], the target named is T2, Voltage-gated N-type calcium channel alpha-1B subunit/Amyloid beta A4 precursor protein-binding family A member 1. Type of test: protein assay. The source holds these as a separate data set.
The target in another test is T4, Cysteine protease ATG4B (Homo sapiens, UniProt Q9Y4P1).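 Further: Fluorescence-based dose-response confirmation assay measuring inhibition of ATG4B activity.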
T4 sequence (Q9Y4P1 whole entry): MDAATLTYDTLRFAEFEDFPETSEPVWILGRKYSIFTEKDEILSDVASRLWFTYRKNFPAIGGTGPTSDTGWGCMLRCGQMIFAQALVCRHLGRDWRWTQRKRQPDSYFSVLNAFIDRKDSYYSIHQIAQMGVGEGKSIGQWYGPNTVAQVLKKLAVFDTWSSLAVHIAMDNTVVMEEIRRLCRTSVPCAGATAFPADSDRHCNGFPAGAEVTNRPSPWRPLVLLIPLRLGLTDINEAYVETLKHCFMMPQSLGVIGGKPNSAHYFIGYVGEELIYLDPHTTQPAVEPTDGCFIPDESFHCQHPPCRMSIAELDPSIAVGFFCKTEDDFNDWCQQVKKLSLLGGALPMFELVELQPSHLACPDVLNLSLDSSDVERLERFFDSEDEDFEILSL
It counts as functional.

Test [6] in a line: alpha-synuclein stem-loop luciferase translation blockers – H4 neuroglioma cells, luminescence, confirmation (AID 1988). Type of test: functional, cell-based.
Test [7] can be described thus: Luminescence Cell-Based Dose Response HTS to Identify Inhibitors of 5'UTR Stem-Loop Driven Prion Protein mRNA Translation in H4 Neuroglioblastoma Cells. [Related pubchem assays: 1827 (Project Summary), 1813 (Primary HTS)]. Type of test: functional.
Test [8] in a line: luciferase reporter signal suppression in cells – H4 neuroglioma cells, luminescence, dose response (AID 1990). Type of test: functional, cell-based. A general note: In a reporter assay the amount or activity of a reporter protein is the signal.
The target in test [9] is T5, Ubiquitin-conjugating enzyme E2 N (Homo sapiens, UniProt P61088).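 Further: Dose-response confirmation in a TR-FRET assay detecting UBC13-driven polyubiquitin chain formation, inhibition measured.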
T5 sequence (P61088 whole entry): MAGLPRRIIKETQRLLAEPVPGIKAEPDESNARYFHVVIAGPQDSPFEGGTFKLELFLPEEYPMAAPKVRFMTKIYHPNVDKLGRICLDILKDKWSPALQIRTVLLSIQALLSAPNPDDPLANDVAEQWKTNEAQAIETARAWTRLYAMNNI
It counts as functional.

In test [10] the target is G-protein coupled receptor 55 (Homo sapiens, UniProt Q9Y2T6). In words: inhibition of LPI-stimulated GPR55 beta-arrestin translocation – imaging, U2OS, beta-arrestin-GFP, LPI agonist, primary screen (AID 2013).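 Further: antagonist potency measured as reduced agonist-driven arrestin aggregation.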 Type of test: functional.
G-protein coupled receptor 55, sequence (Q9Y2T6 whole entry): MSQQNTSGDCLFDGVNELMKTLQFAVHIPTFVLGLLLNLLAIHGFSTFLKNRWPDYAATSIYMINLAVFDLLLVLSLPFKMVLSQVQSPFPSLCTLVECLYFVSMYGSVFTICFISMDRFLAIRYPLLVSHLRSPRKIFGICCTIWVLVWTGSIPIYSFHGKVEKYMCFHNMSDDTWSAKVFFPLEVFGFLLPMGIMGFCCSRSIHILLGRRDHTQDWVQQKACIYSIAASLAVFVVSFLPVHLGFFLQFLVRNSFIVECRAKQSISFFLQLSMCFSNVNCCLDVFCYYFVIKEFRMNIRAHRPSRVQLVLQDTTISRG
Test [11] has as its target T6, Apoptotic protease-activating factor 1 (Homo sapiens, UniProt O14727).
T6 sequence (O14727 whole entry): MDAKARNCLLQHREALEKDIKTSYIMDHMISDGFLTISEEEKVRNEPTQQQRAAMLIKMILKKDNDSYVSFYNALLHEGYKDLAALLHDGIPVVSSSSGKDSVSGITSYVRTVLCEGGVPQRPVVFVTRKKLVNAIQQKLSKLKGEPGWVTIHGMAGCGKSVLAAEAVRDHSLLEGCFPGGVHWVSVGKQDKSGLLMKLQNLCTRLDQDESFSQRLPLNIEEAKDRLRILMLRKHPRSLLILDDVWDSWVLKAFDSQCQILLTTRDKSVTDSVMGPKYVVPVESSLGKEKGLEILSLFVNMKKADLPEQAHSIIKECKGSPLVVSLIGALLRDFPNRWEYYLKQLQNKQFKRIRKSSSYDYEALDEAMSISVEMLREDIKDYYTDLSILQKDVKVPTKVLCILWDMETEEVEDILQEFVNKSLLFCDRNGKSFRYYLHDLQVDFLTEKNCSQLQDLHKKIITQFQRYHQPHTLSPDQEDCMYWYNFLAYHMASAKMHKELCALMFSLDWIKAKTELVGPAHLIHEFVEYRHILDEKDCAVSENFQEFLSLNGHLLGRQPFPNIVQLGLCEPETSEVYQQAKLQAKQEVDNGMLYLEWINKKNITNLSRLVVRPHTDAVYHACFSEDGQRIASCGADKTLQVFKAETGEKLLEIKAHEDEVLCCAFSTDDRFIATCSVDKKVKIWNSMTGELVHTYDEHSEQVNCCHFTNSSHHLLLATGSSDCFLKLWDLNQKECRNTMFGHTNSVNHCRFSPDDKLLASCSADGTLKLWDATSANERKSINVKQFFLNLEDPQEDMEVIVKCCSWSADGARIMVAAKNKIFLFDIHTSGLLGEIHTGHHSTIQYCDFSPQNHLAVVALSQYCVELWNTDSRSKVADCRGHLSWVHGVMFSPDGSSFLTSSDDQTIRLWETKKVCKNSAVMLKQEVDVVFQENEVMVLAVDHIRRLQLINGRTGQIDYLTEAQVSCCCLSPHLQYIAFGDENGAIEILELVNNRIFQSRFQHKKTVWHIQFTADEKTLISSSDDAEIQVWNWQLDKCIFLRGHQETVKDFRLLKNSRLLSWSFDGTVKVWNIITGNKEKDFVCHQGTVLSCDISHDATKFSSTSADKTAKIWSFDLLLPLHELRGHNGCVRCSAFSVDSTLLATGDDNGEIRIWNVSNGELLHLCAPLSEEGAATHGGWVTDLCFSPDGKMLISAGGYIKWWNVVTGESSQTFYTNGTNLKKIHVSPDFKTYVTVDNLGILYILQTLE
It counts as functional.

For test [12], the target named is Aryl hydrocarbon receptor (Homo sapiens, UniProt P35869). In words: Luminescence-based cell-based high throughput dose response assay for activators of the Aryl Hydrocarbon Receptor (AHR). [Related pubchem assays: 2796 (Primary screen (AHR activators in singlicate)), 2845 (Confirmation screen (AHR activators in triplicate)), 434939 (Counterscreen (PXR activators in triplicate)), 2804 (Summary (AHR activators))]. It counts as ADME.

The target of test [13] is Luciferin 4-monooxygenase (Photinus pyralis, UniProt P08659). In words: Counter Screen for Luciferase-based Assay Positives. [Related pubchem assays: 620, 618, 411 ]. Background: A counterscreen serves to expose hits that act by an unwanted route or on another target.
Luciferin 4-monooxygenase, sequence (P08659 whole entry): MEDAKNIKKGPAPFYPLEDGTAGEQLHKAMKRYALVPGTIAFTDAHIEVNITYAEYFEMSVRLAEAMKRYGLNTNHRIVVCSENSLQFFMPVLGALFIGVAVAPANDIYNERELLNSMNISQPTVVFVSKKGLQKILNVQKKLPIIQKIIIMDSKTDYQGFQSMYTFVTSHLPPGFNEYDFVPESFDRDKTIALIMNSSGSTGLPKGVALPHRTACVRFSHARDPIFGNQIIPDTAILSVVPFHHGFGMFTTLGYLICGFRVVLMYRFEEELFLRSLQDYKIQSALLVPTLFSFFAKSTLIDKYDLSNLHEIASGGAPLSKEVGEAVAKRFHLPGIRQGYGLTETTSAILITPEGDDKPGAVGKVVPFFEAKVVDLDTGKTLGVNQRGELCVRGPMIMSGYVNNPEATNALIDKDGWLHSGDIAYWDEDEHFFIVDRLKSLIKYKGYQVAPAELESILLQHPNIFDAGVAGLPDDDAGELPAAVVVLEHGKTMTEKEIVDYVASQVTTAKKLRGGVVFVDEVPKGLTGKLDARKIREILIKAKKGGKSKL
The next test has as its system HT-1080. In words: HT1080 cell viability loss – fluorescence readout (AID 620). It counts as functional, cell-based. The following applies: Homo sapiens.
For test [14], the target named is E3 ubiquitin-protein ligase Mdm2/Protein Mdm4 (Homo sapiens, UniProt O15151+Q00987). In words: disruption of Mdm2/MdmX protein binding – luminescence detection, dose response (AID 504593). Type of test: functional.

One may read the AC50 as the concentration giving half of the maximal activity seen. In general, IC50 refers to the midpoint of a concentration-inhibition curve. For the compound `CCc1ccc(-n2cccc2/C=C2/C(=N)N3C(=NC2=O)SN=C3S(C)(=O)=O)cc1`, the AC50 in [1] is 11.5 µM (active). For the same compound, the IC50 is 45.8 µM (active) at Prothrombin; > 50 µM (inactive) in test [2]; 21.8 µM (active) in [3]; 12 µM (active) on Phospholipase A2; 34.4 µM (active) on Aminopeptidase N; 30.9 µM (active) in test [4]. Further, the IC50 was 7.3 µM (active) in test [5] and 11.2 µM (active) on Cysteine protease ATG4B.

In general, EC50 refers to the concentration giving half of the maximal effect. For `CN1Cc2c(N3CCOCC3)nc3sc(C(=O)c4ccc(Br)cc4)c(N)c3c2CC1(C)C`, the EC50 in [6] is 8.58 µM (active); in test [7] it was 11.6 µM (active); in test [8], 10.4 µM (active). The IC50 was > 20 µM (inactive) in [9], 3.9 µM (active) in test [10] and 15.8 µM (active) in [11].

With `Cc1nc(NC2=NCN(CCCN3CCOCC3)CN2)nc2c(C)cccc12`, the values for the EC50 (in test [12]; in [13]; with HT-1080) were 12.1 µM (not active), 3.36 µM (active) and 51.5 µM (not active), respectively. Further, in test [14], the IC50 was 3.92 µM (active).
